The values that follow come from patent US20200375958A1, “MEMBRANE ACTIVE MOLECULES” (priority 2017, published 2020).

Series [1] concerns Tadpoles. The series can be described thus: Tadpole anesthesia test (movement suppressed on contact with rod). It counts as in vivo. The procedure:
Tadpoles were placed in a petri dish containing aquarium water. Four to eight tadpoles were placed in each petri dish. The aquarium water contained the specified test compound at the listed concentration. When the tadpoles stopped moving, a plastic rod was used to elicit motion once again by contact between the rod and tadpole. […] From this and the number of subjects, the percent of tadpoles in which movement was suppressed were calculated.
After 1 to 30 minutes, they were again contacted with a rod to ensure the anesthetic effect had worn off.
In some examples, subanesthetic concentrations of ethanol were added into the aquarium water. Tadpoles in which movement was prevented with exposure to a test compound and ethanol but not with exposure to a test compound alone were classified as partial anesthetics.

Series [2] deals with mouse. The following applies: for Effect on the animals: 62.5 mM solution in intralipid; for Effect on the animals / Lethality to the animals: intravenous. The procedure:
Butyric acid was dissolved in water to form an 8 M solution. 0.5 mL of the 8 M solution of butyric acid was injected subcutaneously (at the back of the neck) into the mouse.
3-hydroxybutyric acid was dissolved in water to form 1 M, 1.5 M, and 2 M solutions. 0.2 mL of a 1.5 M solution of 3-hydroxybutyric acid was injected into a tail vein of a CD-1 mouse. […] This was repeated for at least 2 more times on subsequent days.
Ethylmalonic acid was dissolved in water to form 2 M, 3 M, and 4 M solutions. 0.2 mL of a 3 M solution of ethylmalonic acid was injected into a tail vein of a mouse. […] This was repeated for at least 2 more times on subsequent days.
Ethylmalonic acid was dissolved in water to form a 4 M solution. 0.5 mL of the 4 M solution of ethylmalonic acid was injected subcutaneously into the mouse.

Setting [3] is: read-out: Movement suppressed (%).
Setting [4] is: Concentration 62.5 mM in aquarium water.

Read-outs that look alike come from different tables or passages of the source.

Regarding `C[C@H](O)CC(=O)O` [S-3-hydroxybutyric acid, (S)-3-Hydroxybutanoic acid], in series [1] (setting [3]), the responders at 100000 µM was 0%, the responders at 200000 µM stood at 0%, the responders at 250000 µM is 14% and the responders at 300000 µM amounted to 17%. In series [1] (setting [3]), the responders at 350000 µM is 50%, the responders at 400000 µM was 92% and the responders at 500000 µM was determined as 100%.

As for `N=C(N)NCCC[C@H](N)C(=O)O` [Arginine], the responders at 46500 µM in series [1] (setting [3]) was found to be 0%.

Turning to ethyl isovaleric acid, the “Effect on the animals” value in series [2] was “lethargic and those loss coordination”.

For the molecule `CCCC(=O)OCC` [ethyl butyrate], the “Effect on the animals” value in series [2] was “lethargic and those loss coordination”. The “Lethality to the animals” value in series [2] (250 mM solution in intralipid) and in series [2] (1M solution in intralipid) was “lethal” throughout.

As for `CCOC(=O)C(CC)(C(=O)OCC)c1ccccc1` [diethyl ethylphenylmalonate], the “Effect on the animals” value in series [2] is “lethargic and those loss coordination”. For the same molecule, the “Lethality to the animals” value in series [2] (250 mM solution in intralipid) and in series [2] (1M solution in intralipid) was “lethal” throughout.

For `CCOC(=O)C(CC)C(=O)OCC` [diethyl ethyl malonate, Diethyl ethyl malonate], in series [2], the “Effect on the animals” value is “lethargic and those loss coordination”.

Take `CCO` [Ethanol control, Ethanol, reference compound]: in series [1] (setting [3]), the responders at 100000 µM worked out at 0%, the responders at 150000 µM came out at 0%, the responders at 200000 µM was determined as 0% and the responders at 250000 µM stood at 33%.

On to `CCOC(=O)[C@@H](O)c1ccccc1` [ethyl (S)-(+)-mandelate], for which the “Effect on the animals” value in series [2] was “lethargic and those loss coordination”. Moreover, the “Lethality to the animals” value in series [2] (250 mM solution in intralipid) and in series [2] (1M solution in intralipid) was “lethal” each time.

Turning to `O=C(O)CCCCCCC(=O)O` [Suberic acid, Octanedioic acid], in series [1] (setting [3]), the responders at 10000 µM is 50%.

For `O=C(O)Cc1c[nH]c2ccccc12` [Indole-3-acetic acid, 2-(1H-indol-3-yl)acetic acid], the responders at 12500 µM in series [1] (setting [3]) was 0%.

For the molecule `N[C@@H](Cc1c[nH]c2ccccc12)C(=O)O` [Tryptophan], the responders at 12500 µM in series [1] (setting [3]) stood at 0%.

Turning to `CC(C)(C(=O)O)C(=O)O` [Dimethylmalonic acid], in series [1] (setting [3]), the responders at 125000 µM turned out to be 60% and the responders at 250000 µM amounted to 60%.

On to `C[C@@H](O)CC(=O)O` [R-3-hydroxybutyric acid, (R)-3 -Hydroxybutanoic acid], for which, in series [1] (setting [3]), the responders at 100000 µM came out at 0%, the responders at 200000 µM worked out at 0%, the responders at 250000 µM is 0% and the responders at 300000 µM was determined as 0%. Further, in series [1] (setting [3]), the responders at 350000 µM was found to be 0%, the responders at 400000 µM was 46% and the responders at 500000 µM amounted to 100%.

For `CCC(C)C(=O)C(=O)O` (centres unmarked) [3-Methyl-2-oxovaleric acid, 3-Methyl-2-oxopentanoic acid], the responders at 250000 µM in series [1] (setting [3]) was determined as 33%.

Regarding `O=C(O)C(O)c1ccccc1` (centres unmarked) [Mandelic acid, 2-Hydroxy-2-phenylacetic acid], in series [1] (setting [3]), the responders at 250000 µM amounted to 0%, the responders at 300000 µM is 100% and the responders at 500000 µM amounted to 100%.

As to `Cc1ccc(C(=O)NCC(=O)O)cc1` [4-Methylhippuric acid, (4-Methylbenzoyl)glycine], in series [1] (setting [3]), the responders at 50000 µM turned out to be 0% and the responders at 150000 µM was 0%.

As to Tartaric acid [L-Tartaric acid], the “Movement suppressed (%)” value in series [1] (Concentration 50 mM in aquarium water) came out at 0%; in series [1] (Concentration (mM) 50 + 150 EtOH), 100%.

As to `CCC(O)C(=O)O` (centres unmarked) [2-Hydroxybutyric acid, 2-hydroxybutyric acid], the responders at 125000 µM in series [1] (setting [3]) amounted to 0%.

For the molecule `N[C@@H](CO)C(=O)O` [L-Serine, Serine], the responders at 114000 µM in series [1] (setting [3]) worked out at 0%.

Turning to `O=C(O)[C@@H]1CCCN1` [Proline], the responders at 103000 µM in series [1] (setting [3]) amounted to 0%.

For the molecule `O=C(O)c1cc(O)c2ccccc2n1` [Kynurenic acid, 4-hydroxyquinoline-2-carboxylic acid], the responders at 12500 µM in series [1] (setting [3]) was 0%.

Take Glycine: the “Movement suppressed (%)” value in series [1] (Concentration (mM) 250 + 150 EtOH) is given as 100%.

With `NC(=O)CC[C@H](N)C(=O)O` [Glutamine], in series [1] (setting [3]), the responders at 25000 µM amounted to 0%, the responders at 50000 µM came out at 100% and the responders at 100000 µM came out at 100%.

With `NC(=O)C[C@H](N)C(=O)O` [L-Asparagine, Asparagine], the responders at 100000 µM in series [1] (setting [3]) was 0%.

On to `O=C(O)CCCCC(=O)O` [Adipic acid, Hexanedioic acid], for which, in series [1] (setting [3]), the responders at 50000 µM stood at 0%.

As to `CC(C)(C)CC(=O)O` [3,3-Dimethylbutyric acid, 3,3-Dimethylbutanoicacid], in series [1] (setting [3]), the responders at 25000 µM was determined as 100%.

Turning to `CC(C)[C@H](N)C(=O)O` [L-valine, Valine], in series [1] (setting [3]), the responders at 7800 µM is 0%, the responders at 31000 µM came out at 0%, the responders at 125000 µM came out at 0% and the responders at 500000 µM came to 40%.

For the molecule Fumaric acid, the results for the “Movement suppressed (%)” value in series [1] (Concentration 25 mM in aquarium water) and in series [1] (Concentration (mM) 25 + 150 EtOH) were 40% and 80%, respectively.

Regarding `CC(=O)CCCC(=O)O` [4-Acetylbutyric acid, 5-Oxohexanoic acid], the responders at 25000 µM in series [1] (setting [3]) came out at 0%.

As for `O=C(O)C(=O)Cc1ccccc1` [Phenylpyruvic acid, 2-Oxo-3-phenylpropanoic acid], in series [1] (setting [3]), the responders at 62500 µM came out at 100% and the responders at 125000 µM came out at 100%.

Regarding `CC[C@H](C)[C@H](N)C(=O)O` [Isoleucine], in series [1] (setting [3]), the responders at 25000 µM worked out at 0%.

`Cc1cccc(C(=O)NCC(=O)O)c1` [3-Methylhippuric acid, (3-Methylbenzoyl)glycine]: the responders at 3125 µM in series [1] (setting [3]) was 0%.

Consider `O=C(NC(O)C(=O)O)c1ccccc1` (stereo not drawn) [Alpha-Hydroxyhippuric acid, 2-Benzamido-2-hydroxyacetic acid], for which, in series [1] (setting [3]), the responders at 5000 µM is 33% and the responders at 10000 µM is 100%.

Regarding `CCC(C(=O)O)C(=O)O` [Ethyl Malonic Acid, 2-Ethylmalonic acid], the “Anesthetic effect on the mouse” value in series [2] (0.2 mL of 3 M solution in water, tail vein) is “became unconscious”. In addition, the “Anesthetic effect on the mouse” value in series [2] (0.5 mL of 4 M solution in water, subcutaneous) is “became sedated, anesthetized, or lose consciousness”. In addition, the “Anesthetic effect on the mouse” value in series [2] (2 M solution in water, tail vein) is “did not have any observable effect”. Moreover, in series [2] (4 M solution in water, tail vein), the “Lethality to the mouse” value was “lethal”. In series [1] (setting [3]), the responders at 16000 µM was determined as 0%, the responders at 62500 µM was determined as 0%, the responders at 125000 µM came to 100% and the responders at 250000 µM is 100%.

Take `CCC(C)CC(=O)O` (centres unmarked) [3-Methylvaleric acid, 3-Methylpentanoic acid]: in series [1] (setting [3]), the responders at 20000 µM worked out at 25%.

For the molecule Succinic acid, the “Movement suppressed (%)” value in series [1] (setting [4]) is listed as 0%; in series [1] (Concentration (mM) 62.5 + 200 EtOH), 66%.

As for `CC(C)(O)CC(=O)O` [3-Hydroxy-3-methylbutyric acid, 3-Hydroxy-3-methylbutanoic acid], in series [1] (setting [3]), the responders at 1600 µM is 0%, the responders at 6250 µM stood at 0%, the responders at 25000 µM was determined as 0% and the responders at 100000 µM was determined as 100%.

On to `O=C(O)CCCC(=O)O` [Glutaric acid], for which, in series [1] (setting [3]), the responders at 7800 µM came out at 0%, the responders at 31000 µM was determined as 0% and the responders at 125000 µM stood at 0%.

On to `O=C(O)c1ccc2ccccc2n1` [Quinaldic acid, Quinoline-2-carboxylic acid], for which, in series [1] (setting [3]), the responders at 25000 µM was found to be 16%.

As to `CC(C)C(C(=O)O)C(=O)O` [Isopropyl malonic acid, 2-isopropylmalonic acid], in series [1] (setting [3]), the responders at 1600 µM is 0%, the responders at 6250 µM stood at 0% and the responders at 25000 µM is 50%.

Turning to Guanidine, the “Movement suppressed (%)” value in series [1] (setting [4]) is given as 0%; in series [1] (Concentration (mM) 62.5 + 150 EtOH), 100%.

For the molecule `CC(C)CCC(=O)O` [4-Methylvaleric acid], the responders at 20000 µM in series [1] (setting [3]) came to 0%.
